Experimental findings from patent US20230065079A1, “FATTY ACID DERIVATIVE LABELED WITH POSITRON-EMITTING RADIONUCLIDE” (ASTELLAS PHARMA INC., priority 2020, published 2023) are described below.

This data set is described as follows: PET test using normal cynomolgus monkey (heart contrast PET, SUV in myocardium and bone ROI). The format is in vivo. The note with it: for SUV (bone) 20 minutes / SUV (bone) 60 minutes / SUV (bone) 120 minutes / SUV (bone) 180 minutes / SUV (myocardium) 20 minutes / SUV (myocardium) 60 minutes / SUV (myocardium) 120 minutes / SUV (myocardium) 180 minutes: male normal cynomolgus monkey, about 300 MBq i.v.; for SUV (bone) 20 minutes / SUV (bone) 60 minutes / SUV (bone) 120 minutes / SUV (bone) 180 minutes: ROI bone (near the spine), n.d. = target organ cannot be confirmed in the image and ROI cannot be set; for SUV (bone) 20 minutes / SUV (myocardium) 20 minutes: 0 to 20 minutes after administration; for SUV (bone) 60 minutes / SUV (myocardium) 60 minutes: 20-minute section ending 60 minutes after administration; for SUV (bone) 120 minutes / SUV (myocardium) 120 minutes: 20-minute section ending 120 minutes after administration; for SUV (bone) 180 minutes / SUV (myocardium) 180 minutes: 160 to 180 minutes after administration; for SUV (myocardium) 20 minutes / SUV (myocardium) 60 minutes / SUV (myocardium) 120 minutes / SUV (myocardium) 180 minutes: ROI myocardium, Examples 1 case, Reference Example 15 average ± standard error of 3 cases. The source says: Solutions containing each compound prepared in Examples 1 to 7 and Reference Example 15 ([^18F]FTO) were used to perform a heart contrast PET test using normal cynomolgus monkeys.
For performing non-invasive PET imaging, in a state in which a male cynomolgus monkey was anesthetized with inhalation anesthetic isoflurane, the monkey was held at a supine body position on a PET camera SHR17000 (manufactured by Hamamatsu Photonics K.K.), the solution containing each compound (about 300 MBq) was administered from the lower extremity vein, and continuous imaging was performed for 180 minutes or more after the administration. The PET images were reconstructed by dynamic row-action maximum likelihood algorithm (DRAMA) and average images per each time section which is divided every 20 minutes from 0 minutes to 180 minutes after the administration, are obtained. Then, the region of interest (ROI) was set in the myocardium region or bone (near the spine), and the accumulation (standardized uptake value (SUV)) of each compound was calculated as {radioactivity count in the ROI (MBq/cc)/[dose (MBq)/body weight (g)]}.
The SUV values quantified by setting the ROI for the myocardium and the bone of each compound are shown in Tables 10 and 11 as SUV (myocardium) and SUV (bone). […] A case where the target organ cannot be confirmed in the image and the ROI cannot be set is denoted as n.d. The time in the Tables represents an end point of each time section, for example, “20 minutes” represents the SUV value from 0 minutes to 20 minutes after, and “180 minutes” represents the SUV value from 160 minutes to 180 minutes after the administration. In addition, Maximum Intensity Projection (MIP) PET images 60 minutes and 180 minutes after the administration of the compounds of Reference Example 15 ([…]) and Example 6 are shown in FIGS. 1A to 1D.

As for `CC/C=C\C/C=C\C/C=C\CC([18F])CCSCCC(=O)O` (stereo not shown) [Example 1, 3-{[(5Z,8Z,11Z)-3-[lSF]fluorotetradeca-5,8,11-trien-1-yl]sulfanyl}propanoic acid], the “SUV (bone) 20 minutes” value came to 0.87, the “SUV (bone) 60 minutes” value came to 0.69, the “SUV (bone) 120 minutes” value was 0.75 and the “SUV (bone) 180 minutes” value is 0.79. For the same compound, the “SUV (myocardium) 20 minutes” value is listed as 4.87, the “SUV (myocardium) 60 minutes” value was found to be 4.13, the “SUV (myocardium) 120 minutes” value amounted to 3.21 and the “SUV (myocardium) 180 minutes” value is on record as 2.80.
As for `CCCCCCCCCC([18F])CCSCCC(=O)O` (stereo not shown) [Example 2, 3-[(3-[^18F]fluorododecyl)sulfanyl]propanoic acid], the “SUV (bone) 20 minutes” value amounted to 1.40, the “SUV (bone) 60 minutes” value stood at 1.05, the “SUV (bone) 120 minutes” value turned out to be 1.34 and the “SUV (bone) 180 minutes” value came to 1.14. Further, the “SUV (myocardium) 20 minutes” value was found to be 7.40, the “SUV (myocardium) 60 minutes” value amounted to 7.53, the “SUV (myocardium) 120 minutes” value is 6.74 and the “SUV (myocardium) 180 minutes” value stood at 5.92.
For the compound `CCCCC/C=C\C/C=C\CC([18F])CCSCCC(=O)O` (stereo not shown) [Example 3, 3-{[(5Z,8Z)-3-[^18F]fluorotetradeca-5,8-dien-1-yl]sulfanyl}propanoic acid], the “SUV (bone) 20 minutes” value stood at 2.12, the “SUV (bone) 60 minutes” value amounted to 2.00, the “SUV (bone) 120 minutes” value is listed as 2.07 and the “SUV (bone) 180 minutes” value worked out at 2.08. In addition, the “SUV (myocardium) 20 minutes” value was 5.75, the “SUV (myocardium) 60 minutes” value was found to be 3.20, the “SUV (myocardium) 120 minutes” value is 2.80 and the “SUV (myocardium) 180 minutes” value is given as 2.41.
As to `CCCCCCCCCCCC([18F])CCSCCC(=O)O` (stereo not shown) [Example 4, 3-[(3-[^18F]fluorotetradecyl)sulfanyl]propanoic acid], the “SUV (bone) 20 minutes” value amounted to 1.57, the “SUV (bone) 60 minutes” value is reported as 1.13, the “SUV (bone) 120 minutes” value was found to be 1.27 and the “SUV (bone) 180 minutes” value was 1.51. Also, the “SUV (myocardium) 20 minutes” value is reported as 6.65, the “SUV (myocardium) 60 minutes” value was found to be 5.44, the “SUV (myocardium) 120 minutes” value was 4.38 and the “SUV (myocardium) 180 minutes” value is given as 3.92.
For `CCCCCCCC/C=C/CC([18F])CCSCCC(=O)O` (stereo not shown) [Example 5, 3-{[(5E)-3-[^18F]fluorotetradec-5-en-1-yl]sulfanyl}propanoic acid], the “SUV (bone) 20 minutes” value is 1.45, the “SUV (bone) 60 minutes” value is 1.36, the “SUV (bone) 120 minutes” value is given as 1.28 and the “SUV (bone) 180 minutes” value amounted to 1.40. For the same compound, the “SUV (myocardium) 20 minutes” value was 6.84, the “SUV (myocardium) 60 minutes” value is recorded as 6.13, the “SUV (myocardium) 120 minutes” value amounted to 5.16 and the “SUV (myocardium) 180 minutes” value is recorded as 5.09.
Consider `CCCCCCCCC1CC1CC([18F])CCSCCC(=O)O` (stereo not shown) [Example 6, 3-{[3-[^18F]fluoro-4-(2-octylcyclopropyl)butyl]sulfanyl}propanoic acid], for which the “SUV (myocardium) 20 minutes” value was determined as 7.74, the “SUV (myocardium) 60 minutes” value was found to be 6.24, the “SUV (myocardium) 120 minutes” value was determined as 4.80 and the “SUV (myocardium) 180 minutes” value is 3.98. The “non-specific accumulation to the bone” value (PET, normal cynomolgus monkey, result in words) is reported as “not detected at all”.
Consider `CCCCCCCCC([18F])CCSCCCCC(=O)O` (stereo not shown) [Example 7, 5-[(3-[^18F]fluoroundecyl)sulfanyl]pentanoic acid], for which the “SUV (bone) 20 minutes” value worked out at 1.87, the “SUV (bone) 60 minutes” value is recorded as 3.41, the “SUV (bone) 120 minutes” value is on record as 5.11 and the “SUV (bone) 180 minutes” value came out at 6.36. Besides, the “SUV (myocardium) 20 minutes” value amounted to 11.6, the “SUV (myocardium) 60 minutes” value turned out to be 11.4, the “SUV (myocardium) 120 minutes” value was 10.0 and the “SUV (myocardium) 180 minutes” value is recorded as 8.44.
For `O=C(O)CCSCCCC/C=C\CCCCCCCC[18F]` [Reference Example 15, 3-{[(5Z)-14-[^18F]fluorotetradec-5-en-1-yl]sulfanyl}propanoic acid, reference compound], the “SUV (bone) 20 minutes” value worked out at 1.42 ± 0.10, the “SUV (bone) 60 minutes” value was determined as 2.27 ± 0.13, the “SUV (bone) 120 minutes” value is 3.82 ± 0.60 and the “SUV (bone) 180 minutes” value is on record as 5.05 ± 0.99. Moreover, the “SUV (myocardium) 20 minutes” value was 6.45 ± 0.59, the “SUV (myocardium) 60 minutes” value turned out to be 6.54 ± 0.51, the “SUV (myocardium) 120 minutes” value is listed as 5.90 ± 0.58 and the “SUV (myocardium) 180 minutes” value amounted to 5.21 ± 0.59.
